Measured values taken from PubChem BioAssay AID463074 (Broad Institute, 2010).
Active and inactive are the calls of the source.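 How the source made its calls: active means AC50 no more than tenfold above the top dose tested, or full inhibition at every dose with a flat fit (cut at about 19 µM in these data); inconclusive means flat curve fit with inhibition between 30% and 70%, or poor fit; inactive means AC50 more than tenfold above the top dose tested.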 Residues, ends and D or L forms follow the SMILES beside them. *: point of attachment. Boc = CC(C)(C)OC(=O)*; Bn = c1ccc(C*)cc1

System: HMLE_sh_eGFP viability, CellTiter-Glo luminescence, 72 h
Assay: cytotoxicity in HMLE control line with eGFP shRNA, dose response, counter-screen for HMLE_sh_ECad selective toxicity project, cell-based, HMLE_sh_eGFP, luminescence (AID 463074);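 further: counterscreen control line to flag general toxicity for the HMLE_sh_ECad screen; potency for loss of viability as luminescence drops below DMSO wells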

Row | Structure (SMILES) | AC50
1 | CC(C)CC(NC(=O)C(NC(=O)C(Cc1ccc(OCc2ccccc2)cc1)NC(=O)OC(C)(C)C)C(C)C)C(N)=O (stereo not drawn) (Boc-Tyr(Bn)-Val-Leu-NH2; configuration not given here) | > 19.5 µM (inactive)
2 | CCNS(=O)(=O)c1ccc(NC(=O)Nc2cccc(C(F)(F)F)c2)cc1 | 13.5 µM
3 | COc1ccc(/C=N/Nc2cc(N3CCCC3)nc(N3CCCC3)n2)cc1 | 5.14 µM
4 | COc1ccc(C2NCCc3c2[nH]c2ccccc32)cc1CSc1nc2ccccc2s1 (stereo not given) | 4.98 µM
5 | Fc1ccc(C(OCCN2CCN(CCCc3ccccc3)CC2)c2ccc(F)cc2)cc1 | 3.12 µM
6 | O=C(Oc1ccc(Br)cc1C(=O)/C=C/c1ccccc1F)c1ccco1 | 4.19 µM
7 | COc1cc2c(cc1NC(=O)c1cccc(S(=O)(=O)N(C)C)c1)oc1ccccc12 | 3.52 µM
8 | CCCCOC(=O)c1c(C)oc2ccc(NS(=O)(=O)c3ccc4c5c(cccc35)C(=O)N4)cc12 | 9.12 µM
9 | CNC(C)C(=O)NC(C(=O)N1CCCC1C(=O)NNc1ccccc1)C(C)C (stereo not given) | 6.41 µM
10 | N#C/C(=C/c1cn(-c2ccccc2)nc1-c1cccc(OCc2ccccc2)c1)C(=O)NCCCn1ccnc1 | 6.25 µM
11 | COc1cc(NC(=O)c2csc(N)n2)cc(C(=O)Nc2cccc(C(F)(F)F)c2)c1 | 5.65 µM
12 | N#C/C(=C\C=C\c1ccccc1[N+](=O)[O-])C(=O)NC1CCCCC1 | 6.88 µM
13 | CCN(CC)CCCNC(=S)N1CCN(c2nc(-c3ccccc3)cs2)CC1 | 5.65 µM
14 | Cc1ccc(NC(=O)CN(C)C(=O)Cn2ncc(Cl)c(Cl)c2=O)cc1 | 4.22 µM
15 | CC(O)CC(C(=O)NNc1ccccc1)C(=O)NNc1ccccc1 (stereo not given) | 1.87 µM
16 | CCCCCNCC(=O)Nc1cccc(C(=O)Nc2cccc(C(F)(F)F)c2)c1 | 13.2 µM
17 | O=C(c1cnn2c1NC(c1ccc(Br)cc1)CC2C(F)(F)F)N1CCN2CCCC2C1 (stereo not given) | 4.46 µM
18 | O=C(COc1ccc(-c2ccccc2)cc1)N/N=C/c1cc(O)ccc1Br | 5.68 µM
19 | C=C(C)COc1ccc(-c2n[nH]c(C)c2-c2ccc(Br)cc2)c(O)c1 | 3.25 µM
20 | Cc1nnc(-c2ccc(Oc3ccc(Cl)cc3)c([N+](=O)[O-])c2)o1 | 0.33 µM
21 | C[C@@H](CSc1ccc(Br)cc1)CN1CC[C@H](NC(=O)OCc2ccccc2)CCC1=O | 5.5 µM
22 | FC(F)(F)c1cccc(Nc2ncnc3ccccc23)c1 | 1.75 µM
23 | CC(C)Cc1nc2oc3c(Cl)ncnc3c2c2c1CCCC2 | 4.82 µM
24 | Cc1c(C(=O)Nc2ccc(-c3nnc4n3CCCCC4)cc2)oc2c1ccc1ccccc12 | 5.66 µM
25 | CCCSc1nsc(NC(=O)Nc2ccc(F)cc2F)n1 | 4.87 µM

Row | Structure (SMILES) | AC50
26 | CC12CCC3C(CC=C4CC(O)CCC43C)C1C/C(=C\c1ccccc1F)C2=O (stereo not given) | 4.04 µM
27 | O=C(Nc1cccc(-c2csc(Nc3ccccc3)n2)c1)c1ccccc1 | 4.45 µM
28 | Cc1cc(C)c2c(c1)/C(=C/C(=O)c1ccc(Br)s1)C(=O)N2 | 5.47 µM
29 | COC(=O)c1c(-c2ccc(OC)cc2)oc2ccc(-c3cc(OC)c(OC)c(OC)c3)cc12 | 4.97 µM
30 | CCOC(=O)/C(=C\c1ccc(Cl)cc1)c1nc2sc(C)c(C)c2c(=O)[nH]1 | 1.54 µM
31 | Cc1ccc2nc(Cl)c3cc(C(=O)N(CCN(C)C)Cc4ccco4)sc3c2c1 | 3.53 µM
32 | COc1cc(-c2noc(C)c2/C=C/c2ccc(OC(C)=O)cc2)cc(OC)c1OC | 0.292 µM
33 | C=CCn1c2ccccc2c(=O)c2cc(C#Cc3cc(OC)cc(OC)c3)ccc21 | 11.1 µM
34 | O=C(/C=C/c1ccccc1)NC(NC(=S)Nc1cc(Cl)ccc1Cl)C(Cl)(Cl)Cl (stereo not given) | 6.28 µM
35 | CC(=O)Nc1ccc(SC[C@H](C)CN2CC[C@H](C(C)(C)C)CCC2=O)cc1 | 4.98 µM
36 | O=C(NCc1ccc2c(c1)OCO2)c1nc(S(=O)(=O)Cc2ccccc2F)ncc1Cl | 6.81 µM
37 | N#Cc1c(N)nc2c(c1-c1cccc(O)c1)CCCCCC2 | 16.3 µM
38 | Cc1cccc(-c2cc3nc4c(c(NCc5ccco5)n3n2)CCCC4)c1 | 7.25 µM
39 | O=[N+]([O-])c1cccc(C2NCC(c3ccccc3Cl)c3c2[nH]c2ccccc32)c1 (stereo not given) | 6.75 µM
40 | COc1ccc(OC)c(-c2csc(NC(=O)c3ccc(F)cc3)n2)c1 | 6.89 µM
41 | CN(C)CCOc1ccc(C(C)(C)c2ccccc2)cc1 | 5.19 µM
42 | COc1ccc(-c2nn(-c3ccccc3)cc2C(=O)N(C)CC(=O)Nc2cccc(F)c2)cc1 | 15 µM
43 | Cc1ccc(C(=O)NC(=C(Cl)Cl)S(=O)(=O)c2ccccc2)cc1 | 3.22 µM
44 | N=C(N)SCc1nc2ccccc2c(=O)n1-c1ccccc1Cl | 12.5 µM
45 | C/C(=C\c1ccc(C(=O)O)cc1)c1ccc2c(c1)C(C)(C)CCC2(C)C | 3.7 µM
46 | COc1ccc(OC)c(Nc2c3ccccc3nc3ccccc23)c1 | 2.7 µM
47 | O=C(CC1Nc2ccccc2NC1=O)Nc1ccccc1 (stereo not given) | 1.04 µM
48 | CN(CC(=O)Nc1cccc(F)c1)C(=O)c1cn(-c2ccccc2)nc1-c1ccc(Cl)cc1 | 3.85 µM
49 | Cc1ccccc1CNc1ccc(C(CC(N)=O)NC(=O)c2ccccc2)cc1[N+](=O)[O-] (stereo not given) | 6.24 µM
50 | Cc1ccc2c(c1)c1ncn(CCC3=CCCCC3)c(=O)c1n2C | 1.09 µM

Row | Structure (SMILES) | AC50
51 | COc1ccc(/C=C2\C(=O)c3ccccc3OC2c2ccccc2)cc1 (stereo not given) | 1.38 µM
52 | Cc1nc(NC(=O)CC(C)C)sc1-c1csc(Nc2ccc(Cl)cc2Cl)n1 | 2.38 µM
53 | Cc1ccnc(Nc2nc(-c3ccc(O)cc3O)cs2)c1 | 14.9 µM
54 | COc1cc(CNC(C)c2ccccc2)cc(Br)c1OCc1ccccc1 (stereo not given) | 6.75 µM
55 | Cc1ccc(C(C)C)c(OCc2ccc(C(=O)N/N=C/c3ccc(O)c(O)c3)cc2)c1 | 4.66 µM
56 | COc1cc(Nc2ccc(C)cc2)c([N+](=O)[O-])nc1[N+](=O)[O-] | 5.74 µM
57 | COC(=O)Nc1ccc(S(=O)(=O)N2CCCc3ccccc32)cc1 | 2.21 µM
58 | CCCCNc1c(-c2cccc(Sc3ccc(OC)cc3)c2)nc2ccccn12 | 6.56 µM
59 | O=C(Nc1ccccc1Cc1ccccc1)c1ccccc1NS(=O)(=O)c1ccc(Cl)s1 | 1.84 µM
60 | CCCCCc1cc(=O)oc2c(C(CCN3CCCCC3)c3cc(OC)c(OC)c(OC)c3)c(OC)cc(OC)c12 (stereo not given) | 6.95 µM
61 | CC(=O)Nc1ccc(OCC(O)CN2CCN(c3ccc(C)c(Cl)c3)CC2)cc1 (stereo not given) | 8.97 µM
62 | Cc1ccc(NC(=O)/C=C/c2ccc3c(c2)OCO3)nc1 | 1.16 µM
63 | CC(=O)c1ccc(N2CCN(S(=O)(=O)c3cc(-c4cc(C)no4)ccc3C(C)C)CC2)cc1 | 0.205 µM
64 | Cc1cc(S(=O)(=O)c2ccc([N+](=O)[O-])cn2)ccc1Br | 3.99 µM
65 | CCC(CO)Oc1cc(NCc2ccc(Cl)cc2Cl)c2ncn(C(C)C)c2c1 (stereo not given) | 7.64 µM
66 | CCCCCc1ccc(OCCCC[n+]2cccc(C)c2)c(CCCCC)c1 | 7.42 µM
67 | CCCCC(=O)NC(c1ccco1)c1cc(Cl)c2cccnc2c1O (stereo not given) | 5.79 µM
68 | COc1cc(/C=C/C(=O)c2ccc3c(c2)OCO3)cc(Cl)c1O | 10.8 µM
69 | Oc1ccccc1/C=N/NP(=S)(c1ccccc1)c1ccccc1 | 6.98 µM
70 | CCC1(C)Cc2c(sc3nc(SC)n(Cc4ccccc4)c(=O)c23)CO1 (stereo not given) | 2.77 µM
71 | COc1cc(/C=C2/CCC/C(=C\c3cc(O)c(OC)c(Cl)c3)C2=O)cc(Cl)c1O | 0.768 µM
72 | Cc1[nH]nc2nc(SCC(=O)NC3CCCCC3)n(-c3ccc(Br)cc3)c(=N)c12 | 14.4 µM
73 | COc1cc(C2NCC(c3ccc(Cl)cc3Cl)c3c2[nH]c2ccccc32)cc(OC)c1OC (stereo not given) | 18.7 µM
74 | COc1ccc(/C=C/C(=O)Nc2ccc(C34CC5CC(CC(O)(C5)C3)C4)cc2)cc1OC | 0.631 µM
75 | O=C(NC12CC3CC(CC(C3)C1)C2)c1ccc([N+](=O)[O-])o1 | 7.04 µM
